Laboratory results taken from patent publication US11360080B2, “AhR-ROR-γt complex as a biomarker and therapeutic target for autoimmune disease and IL-17A-associated disease” (NATIONAL HEALTH RESEARCH INSTITUTES, priority 2018, dated 2022).

Molecular target: T1, AhR-RORγt complex (UniProt P35869+P51450)
T1 construct: expressed in transfected cells; host or cells: HEK293T
Assay: FRET assay of HEK293T cells co-transfected with CFP-AhR, YFP-RORγt and IKKβ plasmids
Type: cell-based
Details: IKKβ
Protocol: (A) Luciferase activity of NF-κB-driven reporter assays in stable GLK-transfected CHO-K1 cells that were treated with or without the GLK inhibitor C1 (verteporfin) under the indicated concentration. The fold changes are presented relative to the value of vector control. (B) Recombinant proteins of GLK kinase domain plus recombinant proteins of GST-tagged kinase-dead PKCθ (K409W) were subjected to in vitro kinase assays in the presence or absence of the GLK inhibitor C1 (verteporfin). Means±SD of are shown. *, P value<0.05; **, P value<0.01 (two-tailed Student's t-test). (C) The AhR-RORγt complex was inhibited by the GLK inhibitor. […] (D) Quantification of the PLA signals of (C). […]
FRET signal in live cells was detected by EnVision 2104 Multilabel Plate Reader (Perkin Elmer). The reaction was excited by light passing through a 430-nm filter (with 8 nm bandwidth), and the intensity of emitted fluorescence passing through a 530-nm filter (with 8 nm bandwidth) was recorded. If the protein-protein pair is in close proximity (1-10 nm), a 530-nm signal will be detected. The FRET efficiency was calculated using the following equation: FRET efficiency=((FRET−CFP×a−YFP×b)/YFP)×100%, where FRET, CFP, and YFP correspond to the fluorescent intensities acquired through FRET, CFP, and YFP filter sets, respectively; a and b are the donor emission and acceptor excitation crosstalk ratios, respectively. […]

T1 sequence (P35869 11-848): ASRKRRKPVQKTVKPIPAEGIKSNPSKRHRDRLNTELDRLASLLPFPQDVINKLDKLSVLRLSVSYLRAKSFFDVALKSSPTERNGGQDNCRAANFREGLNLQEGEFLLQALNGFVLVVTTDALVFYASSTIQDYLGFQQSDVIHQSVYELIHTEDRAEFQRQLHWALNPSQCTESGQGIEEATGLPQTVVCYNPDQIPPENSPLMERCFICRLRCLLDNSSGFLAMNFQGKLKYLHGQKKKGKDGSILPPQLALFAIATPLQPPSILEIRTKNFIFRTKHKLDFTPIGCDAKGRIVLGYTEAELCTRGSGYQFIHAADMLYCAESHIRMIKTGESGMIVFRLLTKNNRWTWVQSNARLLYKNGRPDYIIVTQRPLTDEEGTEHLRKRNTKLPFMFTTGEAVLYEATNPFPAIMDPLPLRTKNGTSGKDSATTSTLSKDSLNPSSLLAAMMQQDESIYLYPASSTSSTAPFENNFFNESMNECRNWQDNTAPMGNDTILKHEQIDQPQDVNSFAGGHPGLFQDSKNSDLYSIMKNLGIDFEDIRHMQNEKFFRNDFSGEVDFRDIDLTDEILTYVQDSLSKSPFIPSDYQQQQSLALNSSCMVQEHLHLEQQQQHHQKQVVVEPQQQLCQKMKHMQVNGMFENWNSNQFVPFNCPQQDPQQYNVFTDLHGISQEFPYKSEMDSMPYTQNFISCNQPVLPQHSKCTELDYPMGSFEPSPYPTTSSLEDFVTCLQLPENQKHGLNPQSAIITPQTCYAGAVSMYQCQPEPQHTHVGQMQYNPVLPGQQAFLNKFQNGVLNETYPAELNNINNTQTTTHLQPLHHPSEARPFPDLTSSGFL
T1 sequence (P51450 1-495 isoform P51450-2 T331K): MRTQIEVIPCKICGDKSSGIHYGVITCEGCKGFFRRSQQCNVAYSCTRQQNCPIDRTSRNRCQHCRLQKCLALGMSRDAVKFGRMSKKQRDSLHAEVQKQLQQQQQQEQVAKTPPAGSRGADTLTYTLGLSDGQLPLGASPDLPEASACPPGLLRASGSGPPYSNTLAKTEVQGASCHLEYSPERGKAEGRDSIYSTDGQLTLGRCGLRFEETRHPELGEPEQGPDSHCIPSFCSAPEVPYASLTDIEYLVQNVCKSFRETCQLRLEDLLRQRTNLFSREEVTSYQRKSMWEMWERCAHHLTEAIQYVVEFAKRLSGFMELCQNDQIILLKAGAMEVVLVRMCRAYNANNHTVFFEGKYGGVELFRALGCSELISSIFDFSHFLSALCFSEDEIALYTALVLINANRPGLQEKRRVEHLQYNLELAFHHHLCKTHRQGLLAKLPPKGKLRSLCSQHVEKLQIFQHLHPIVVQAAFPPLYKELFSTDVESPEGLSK

C=Cc1c(C)c2cc3nc(cc4[nH]c(cc5nc(cc1[nH]2)C(C)=C5CCC(=O)O)c(CCC(=O)OC)c4C)[C@@]1(C)C3=CC=C(C(=O)OC)[C@H]1C(=O)OC [C1, verteporfin]
FRET signals AhR-RORγt: inhibited
